pIC50: −log10 of the molar value. Where a name gives a salt, the structure may show the parent alone. Read-outs that look alike come from different tables or passages of the source.
Tested on: spiral strips of the arteria pulmonalis of the guinea pig
Test: relaxing effect on spiral strips of guinea pig arteria pulmonalis, contraction elicited by CaCl2 after depolarization with potassium (modified Godfraind and Kaba / Schuman)
Type: cell-based
Conditions: Cavia porcellus, read-out: IC50 (concentration of the test substance which inhibits the contraction by 50%)
Description: For this, spiral strips of the arteria pulmonalis of the guinea pig are depolarized,following equilibration in calcium-free Tyrode solution, with 40 mmol/l potassium. Addition of 0.5 mmol/l CaCl2 then elicits a contraction. The relaxing effect of the test substance is determined by adding it cummulatively.

[1] = depolarized with 40 mmol/l potassium, contraction by 0.5 mmol/l CaCl2, cumulative addition, average value from 4 to 6 vessel strips

| pIC50 [1] | SMILES | pIC50 |
| --- | --- | --- |
| 5.70 | C[C@@H](NC(=O)c1c(CO)no[n+]1[O-])c1ccccc1 [Example 24, 4-Hydroxymethyl-N-((R)-1-phenylethyl)-2-oxyfurazan-3-carboxamide] |  |
| 5.14 | CNC(=O)c1c(CO)no[n+]1[O-] [Example 4 I, 4-Hydroxymethyl-N-methyl-2-oxyfurazan-3-carboxamide] |  |
| 5.10 | O=C(NCc1cccnc1)c1c(CO)no[n+]1[O-] [Example 8, 4-Hydroxymethyl-N-(3-pyridylmethyl)-2-oxyfurazan-3-carboxamide hydrochloride] |  |
| 3.52 | CCOC(=O)[N-]c1cn(N2CCOCC2)n[o+]1 [Molsidomine, molsidomine, reference compound] |  |
| 5.10 | CC(C)NC(=O)c1c(CO)no[n+]1[O-] [Compound 1 I, 4-Hydroxymethyl-N-isopropyl-2-oxyfurazan-3-carboxamide] |  |
| 4.82 | C[C@H](NC(=O)c1c(CO)no[n+]1[O-])c1ccccc1 [Example 23, 4-Hydroxymethyl-N-((S)-1-phenylethyl)-2-oxyfurazan-3-carboxamide] |  |
|  | O=[N+]([O-])O[C@@H]1CO[C@H]2[C@@H]1OC[C@@H]2O [Isosorbide 5-mononitrate, isosorbide 5-mononitrate, reference compound] | < 4.00 |
| 4.92 | NC(=O)c1c(CO)no[n+]1[O-] [Compound 3 I, 4-Hydroxymethyl-2-oxyfurazan-3-carboxamide] |  |
| 4.96 | NS(=O)(=O)c1ccc(CCNC(=O)c2c(CO)no[n+]2[O-])cc1 [Example 26, 4-Hydroxymethyl-N-[2-(4-sulphamoylphenyl)-ethyl]-2-oxyfurazan-3-carboxamid] |  |
| 5.10 | COCCNC(=O)c1c(CO)no[n+]1[O-] [Example 18, 4-Hydroxymethyl-N-(2-methoxyethyl)-2-oxyfurazan-3-carboxamide] |  |

— patent US5486531A, “Hydroxymethylfurazancarboxylic acid derivatives” (Cassella Aktiengesellschaft, priority 1993, dated 1996)
